Data: US20090311295A1, “PARTICLES WITH HIGH UNIFORM LOADING OF NANOPARTICLES AND METHODS OF PREPARATION THEREOF” (priority 2006, published 2009)

Legend:
[1] = X-ray diffraction (XRD) crystallinity; format: physicochemical; settings: crystalline area divided by total scan area
Method: X-ray diffraction (XRD) was carried out on the raw materials of PS, PMMA and brilliant blue G. Crystallinity of these materials was calculated by dividing the crystalline area (obtained by subtracting amorphous region) by the total scan area. […] XRD was then run on the melt mixtures of brilliant blue G with PS and PMMA.

[2] = Solubility of raw materials and polymer melt mixtures; settings: for MeCl2 Solubility: methylene chloride, Table III; for solubility in organics: organic solvents

Compound	XRD % Crystallinity [1] [%]	MeCl2 Solubility [2]	solubility in organics [2]	water solubility [2]
[Cu+2].c1ccc2c(c1)-c1nc-2nc2[n-]c(nc3nc(nc4[n-]c(n1)c1ccccc41)-c1ccccc1-3)c1ccccc21 [Copper(II) phthalocyanine]	67.1	−	insoluble in most organics	water insoluble
CCN(Cc1cccc(S(=O)(=O)[O-])c1)c1ccc(C(=C2C=CC(=[N+](CC)Cc3cccc(S(=O)(=O)[O-])c3)C=C2)c2ccccc2S(=O)(=O)[O-])cc1.[Na+].[Na+] [FD&C blue #1]		−	insoluble in most organics	very water soluble
Chlorophyll	19.1	−	insoluble in most organics	water soluble

Continued, values first:

XRD % Crystallinity [1] [%]	MeCl2 Solubility [2]	solubility in organics [2]	water solubility [2]	Compound
22.3				CCOc1ccc(Nc2ccc(/C(=C3C=C/C(=[N+](/CC)Cc4cccc(S(=O)(=O)[O-])c4)C=C/3C)c3ccc(N(CC)Cc4cccc(S(=O)(=O)[O-])c4)cc3C)cc2)cc1.[Na+] [Brillian blue G, Brilliant blue G]
36.4	−	insoluble in most organics	very water soluble	O=C1/C(=C2\Nc3ccc(S(=O)(=O)[O-])cc3C2=O)Nc2ccc(S(=O)(=O)[O-])cc21.[Na+].[Na+] [FD&C blue #2]
24.8	−	insoluble in most organics	very water soluble	CC1(C)C(/C=C/C=C/C=C/C=C2\N(CCCCS(=O)(=O)O)c3ccc4ccccc4c3C2(C)C)=[N+](CCCCS(=O)(=O)[O-])c2ccc3ccccc3c21 [Indocyanine green]
	+	slightly soluble in some organics	nearly water insoluble	CC1=C(/C=C/C(C)=C/C=C/C(C)=C/C=C/C=C(C)/C=C/C=C(C)/C=C/C2=C(C)CCCC2(C)C)C(C)(C)CCC1 [beta-Carotene, β-carotene]
